From US20050049299A1, “Selective inhibitors of stat-3 activation and uses thereof” (priority 2003, published 2005)

Legend:
Assay type in all cases: cell-based, human
STAT3 phosphorylation = test: IL-6-induced STAT3 phosphorylation in JMAR cells (Western blot)
Procedure: JMAR cells (2×10^6 cells) were treated with IL-6 (10 ng/ml) for the indicated time and whole cell extracts were prepared. These extracts (30 μg) were resolved on 7.5% SDS-PAGE, electrotransferred to a nitrocellulose membrane and probed for p-STAT3 (upper panel) and stripped and re-probed for STAT3 (lower panel). […] JMAR cells were pretreated with curcumin (50 μM) for indicated durations and stimulated with IL-6 (10 ng/ml) for 10 mins and whole cell extract prepared and probed as mentioned earlier.
JMAR cells were treated with IL-6 for different durations and the levels of p-STAT3 and STAT3 were examined. Treatment with IL-6 as early as 5 mins induced STAT3 phosphorylation in JMAR cells (FIG. 14A, upper panel). However, STAT3 levels were unaffected (FIG. 14A, lower panel).
Further, since IL-6 induced STAT3 phosphorylation in JMAR cells, the ability of curcumin to inhibit this STAT3 phosphorylation was also examined. JMAR cells were pretreated with curcumin for different durations and stimulated with IL-6 for 10 minutes. Both the status of p-STAT3 and STAT3 were determined in the whole cell extracts of these cells. Treatment with curcumin for as early as 30 minutes led to decline in the phosphorylation of STAT3 which declined further with increased exposure to curcumin. Exposure to curcumin for 2 hours inhibited STAT3 phosphorylation in JMAR cells (FIG. 14B, upper panel). The STAT3 levels were unaffected by this treatment (FIG. 14B, lower panel).

[1] = test system: STAT3 nuclear translocation; test: STAT3 distribution in HNSCC cells (immunocytochemistry, Alexa fluorochrome); details: MDA 1986LN, MDA 686LN and JMAR cells, 50 μM, 2 hrs
Procedure: MDA 1986LN, MDA 686LN and JMAR cells were incubated with either media alone or with curcumin (50 μM) for 2 hrs and then analyzed by immunocytochemistry using Alexa fluorochrome for the distribution of STAT3 (original magnification ×200). […] The same procedure as mentioned above was performed on the same cells and the p-STAT3 analyzed by immunocytochemistry using horse radish peroxidase stain (original magnification ×200).
Since STAT3 retained in the cytoplasm under resting conditions and in the non-phosphorylated state translocates to nucleus when phosphorylated, the effect of curcumin on the distribution of STAT3 was examined. To accomplish this, curcumin-treated and untreated MDA 1986LN, MDA 686LN and JMAR cells were analyzed for distribution of STAT3 by immunocytochemistry using ALEXA fluorochrome.

MM.1R cells = test: IL-6-induced proliferation of MM.1R cells; details: curcumin 10 μM, 48 h, serum-free
Procedure: FIGS. 7A-B show& that IL-6 induces proliferation of human multiple myeloma cells and curcumin inhibits it. […] Cell proliferation assays were performed as described below. Results are shown as mean (±s.d.) of percent [^3H] thymidine incorporation or percent proliferation by MTT of triplicate cultures compared to the untreated control.
The antiproliferative effects of curcumin against different multiple myeloma cell lines were determined by the MTT dye uptake method as described earlier (28). Briefly, the cells (5000/well) were incubated in triplicate in a 96-well plate in the presence or absence of indicated test samples in a final volume of 0.1 ml for 24 h at 37° C. […] The OD at 570 nm was measured using a 96-well multiscanner autoreader (Dynatech MR 5000), with the extraction buffer serving as blank. Percent cell viability cell viability was calculated using the following formula: Percent cell viability=(OD of the experiment samples/OD of the control)×100.
The antiproliferative effects of curcumin were also monitored by the thymidine incorporation method. […] Six hours before the completion of experiment, cells were pulse treated with 0.5 μCi [^3H]thymidine, and the uptake of [^3H]thymidine was monitored using a Matrix-9600 β-counter (Packard Instruments, Downers Grove, Ill.). […]
Whether curcumin suppresses the proliferative effects of IL-6 was determined.

[2] = 50 μM curcumin, IL-6 10 ng/ml 10 min

In the case of COc1cc(/C=C/C(=O)CC(=O)/C=C/c2ccc(O)c(OC)c2)ccc1O [curcumin, diferuloylmethane], the “earliest treatment time leading to decline of IL-6-induced STAT3 phosphorylation” value (STAT3 phosphorylation; [2]) is reported as 30 min, the “exposure that inhibited IL-6-induced STAT3 phosphorylation” value (STAT3 phosphorylation; [2]) is reported as 2 h and the STAT3 levels (STAT3 phosphorylation; curcumin pretreatment plus IL-6) is reported as “unaffected”. The “translocation of STAT3 to the nucleus” value [1] was “prevented the translocation of STAT3 to the nucleus” and the “IL-6-induced cell proliferation in MM.1R cells” value (MM.1R cells) was “inhibited IL-6-induced cell proliferation”.
